We go through 16 molecules from patent US20220177485A1, “CAMPTOTHECIN DERIVATIVE, PREPARATION METHOD THEREFOR AND APPLICATION THEREOF” (MARINE BIOMEDICAL RESEARCH INSTITUTE OF QINGDAO CO., LTD., priority 2018, published 2022).

Data set [1] relates to HCT-116 transplanted tumors. Conditions: for Inhibitory rate: day 23; for Tumor volume size: day 23, x ± SE. How it is done:
Digesting collecting cells after the desired amount of cells. Diluting the cells into 250 million/ml cell suspension with 5 A culture medium containing 10% fetal bovine serum. […] Stay around tumor growth to 1 g tissue block, cutting short diameter growth of around 1 mm plaque, by inserting a catheter method. […] Compound of low dose group and high dose group were given by gavages once a week, respectively. The group of irinotecan and 5-fluorouracil were treated by intravenous every three days. Recording changes in body weight in mice, and tumors size three times a week.

In data set [2] the test system is K562 cells (human chronic myeloid leukemia cells). Description: growth inhibition of tumor cells in vitro, K562. Type of data set: cell-based. Conditions: K562 cell line, read-out: IC50 K562. An excerpt: (§1) We tested compounds target a variety of tumor cell for the growth inhibition to show its antitumor activity by using the method of the field technicians known. Chooses the tumor cell lines include: A549 cell non-small cell lung cancer cell line (people), K562 cells (human chronic myeloid leukemia cells), NCI-H1975 cells (non-small cell lung adenocarcinoma cancer cell), MDA-MB-231 cells (human breast cancer cells) and HCT-116 cells (human colon cancer cells).

Data set [3] concerns A549 lung transplantation tumor model and RM-1 (prostate) transplantation tumor model. Description: antitumor activity in vivo, transplanted tumor models in kunming mice. Conditions: intraperitoneal injection.
Description: Using the known in the field of technology, the antitumor activity of compounds in vivo was tested in kunming mice transplanted tumor model. The transplantation tumor models tested including A549 lung transplantation tumor model and RM-1 (prostate) transplantation tumor model. We conducted the tests by intraperitoneal injection.
In data set [4] the test system is NCI-H1975 cells (non-small cell lung adenocarcinoma cancer cell). Put plainly: growth inhibition of tumor cells in vitro, NCI-H1975. The data set is classed as cell-based. Particulars: for IC50: Homo sapiens.
Description: as §1

The test system of data set [5] is MDA-MB-231 cells (human breast cancer cells). Description: growth inhibition of tumor cells in vitro, MDA-MB-231. Type of data set: cell-based. Conditions: for IC50: Homo sapiens.
Description: as §1

Data set [6] relates to HCT-116 cells (human colon cancer cells). Put plainly: cells. The data set is classed as cell-based. Particulars: for IC50: Homo sapiens.
Description: as §1

The target of data set [7] is heat shock protein (HSP90). Put plainly: macromolecular interaction on chip, HSP90. The data set is classed as binding. Particulars: compound fixed on the chip; HSP90 100 nM. The protocol:
(§2) The experimental scheme: 1. Fixed the compounds on the chip:
(§3) Mobile phase were EGF (1 μM), FGF (1 μM), HSP90 (100 nM), FKBP12 (100 nM).
(§4) Detection whether small molecule compounds combined with the provided protein of heat shock protein (HSP90), epidermal growth factor (EGF) and fibroblast growth factor (FGF); and provide relevant data of combined dynamics.

Data set [8] addresses T1, epidermal growth factor (EGF) (Homo sapiens, UniProt P01133).
T1 construct: epidermal growth factor (EGF)
Description: macromolecular interaction on chip, EGF. Type of data set: binding. Particulars: for KD EGF: compound fixed on the chip, EGF 1 μM. The protocol:
as §2, §3, §4

Data set [9] deals with fibroblast growth factor (FGF). Description: macromolecular interaction on chip, FGF. The data set is classed as binding. Conditions: compound fixed on the chip; FGF 1 μM. The protocol: as §2, §3, §4
Data set [10] has as its system A549 cell non-small cell lung cancer cell line. Description: growth inhibition of tumor cells in vitro, A549. Type of data set: cell-based, human. Conditions: Homo sapiens, A549, A549 cell line; read-out: IC50 A549.
Description: as §1

Setting [11] is: 20 mg/kg intravenous every three days.
[12] abbreviates: NCI-H1975, read-out: IC50 NCI-H1975.
Where [13] appears, read: MDA-MB-231, read-out: IC50 MDA-MB-231.
Where [14] appears, read: HCT-116, read-out: IC50 HCT-116.
[15] abbreviates: NCI-H1975 cell line, read-out: IC50 NCI-H1975.
[16] abbreviates: MDA-MB-231 cell line, read-out: IC50 MDA-MB-231.
Where [17] appears, read: HCT-116 cell line, read-out: IC50 HCT-116.

Each structure is given as a SMILES string. Values joined by “and” are separate entries in the source; they are usually repeats but may differ in a detail not shown here. Equal entries are not always repeated. Where two headings read alike, the source gives them in different places. Marks after values point to notes of the source that are not given here. Where only a bound is given, the exact number is not on record here.

T1 sequence (P01133 971-1023 limits assumed, species assumed): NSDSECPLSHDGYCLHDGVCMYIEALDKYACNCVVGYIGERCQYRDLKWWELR

On to `O=c1[nH]cc(F)c(=O)[nH]1` [5 - fluorouracil, 5-fluorouracil, reference compound], for which, in data set [1] (setting [11]), the Inhibitory rate is recorded as 55.64^a % and the Tumor volume size is given as 342.28 ± 128.00^a mm^3.
In general, melting point refers to the temperature of the solid-liquid transition. `CC[C@@]1(O)C(=O)OCc2c1cc1n(c2=O)Cc2c-1nc1cc3c(cc1c2CCc1ccc(N2CCCC2)c(F)c1)OCO3` [Compound 11, 20(S)-7-(3-fluoro-4-(pyrrolidin-1-yl))-10,11-methylenedioxy-camptothecin] showed a melting point of more than 250 °C. Moreover, the IC50 in data set [2] was found to be 305 ± 8.75 nM. Also, the “antitumor activity in vivo compared with topotecan” value in [3] is “better than that of topotecan”.
The molecule `CC[C@@]1(O)C(=O)OCc2c1cc1n(c2=O)Cc2c-1nc1cc3c(cc1c2CCc1ccccc1N1CCOCC1)OCO3` [Compound 15] showed a melting point of more than 250 °C. In addition, the “antitumor activity in vivo compared with topotecan” value in data set [3] is “better than that of topotecan”.
Broadly, the Kd is the equilibrium constant for the complex coming apart. Read a low Kd as tighter binding. Regarding `CC[C@@]1(O)C(=O)OCc2c1cc1n(c2=O)Cc2c-1nc1cc3c(cc1c2-c1ccncc1)OCO3` [Compound 21, 20(S)-7-(pyridin-4-yl)-10,11-methylenedioxy-camptothecin], the IC50 was 20.4 ± 3.65 nM in data set [4] (setting [12]), 4.92 ± 0.36 nM in [5] (setting [13]) and 0.74 ± 0.07 nM in data set [6] (setting [14]). For the same molecule, in [7], the “KD HSP90” value was “No combination”. The Kd in data set [8] amounted to 49.3 nM; in data set [9] it was 18.9 nM. For the same molecule, the “KD EGF” value in [8] is “can combine”. Moreover, in [9], the “KD FGF” value is given as “can combine”.
As to `CC[C@@]1(O)C(=O)OCc2c1cc1n(c2=O)Cc2c-1nc1cc3c(cc1c2-c1cccnc1)OCO3` [Compound 22, 20(S)-7-(pyridin-3-yl)-10,11-methylenedioxy-camptothecin], the IC50 in [4] (setting [12]) came out at 12.6 ± 2.43 nM; in data set [5] (setting [13]), 4.09 ± 0.46 nM; in data set [6] (setting [14]) it was 0.18 ± 0.03 nM.
`CC[C@@]1(O)C(=O)OCc2c1cc1n(c2=O)Cc2c-1nc1cc3c(cc1c2-c1ccoc1)OCO3` [Compound 23, 20(S)-7-(furan-3-yl)-10,11-methylenedioxy-camptothecin]: the IC50 stood at 95.5 ± 5.57 nM in data set [4] (setting [15]), 83.8 ± 6.64 nM in [5] (setting [16]) and 2.97 ± 0.25 nM in [6] (setting [17]). Besides, in data set [7], the “KD HSP90” value is on record as “No combination”. Moreover, the “KD EGF” value in data set [8] is listed as “No combination”. In addition, in [9], the “KD FGF” value is “No combination”. For the same molecule, the mice weight change result in data set [1] (high and low dose group, weight returned after 10 days but still lower than control) is listed as “declined”. For the same molecule, the Tumor volume size in [1] (high dose 5 mg/kg, gavage once a week) is on record as 19.94 ± 2.17*^a mm^3; in data set [1] (low dose 2.5 mg/kg, gavage once a week), 100.52 ± 20.45*^a mm^3. The Inhibitory rate was 87.04% and 95.45^a % in data set [1] (high dose 5 mg/kg, gavage once a week, 5 mg/kg); 95.45% and 87.04^a % in data set [1] (low dose 2.5 mg/kg, gavage once a week, 2.5 mg/kg). The “antitumor activity in vivo compared with topotecan” value in data set [3] was “better than that of topotecan”.
As for `CC[C@@]1(O)C(=O)OCc2c1cc1n(c2=O)Cc2c-1nc1cc3c(cc1c2-c1ccsc1)OCO3` [Compound 24, 20(S)-7-(thiophene-3-yl)-10,11-methylenedioxy-camptothecin], the IC50 was 16.2 ± 0.83 nM in data set [4] (setting [15]), 1.93 ± 0.26 nM in [5] (setting [16]) and 0.21 ± 0.02 nM in data set [6] (setting [17]). Besides, in [6], the “ranking of cytotoxic activity in HCT-116” value is “best cytotoxic activity”. The “KD HSP90” value in [7] is “No combination”. The “KD EGF” value in data set [8] is on record as “No combination”. Moreover, the “KD FGF” value in data set [9] is recorded as “No combination”.
As to `CC[C@@]1(O)C(=O)OCc2c1cc1n(c2=O)Cc2c-1nc1cc3c(cc1c2-c1cnn(C)c1)OCO3` [Compound 25, 20(S)-7-(1-methyl-1H-pyrazol-4-yl)-10,11-methylenedioxy-camptothecin], the IC50 worked out at 35.2 ± 3.15 nM in data set [4] (setting [15]), 3.76 ± 1.08 nM in [5] (setting [16]) and 0.34 ± 0.06 nM in data set [6] (setting [17]). Besides, the “KD HSP90” value in data set [7] was “No combination”. Also, the “KD EGF” value in data set [8] was “No combination”. The “KD FGF” value in [9] was “No combination”.
Consider `CC[C@@]1(O)C(=O)OCc2c1cc1n(c2=O)Cc2c-1nc1cc3c(cc1c2-c1cccs1)OCO3` [Compound 26, 20(S)-7-(thiophene-2-yl)-10,11-methylenedioxy-camptothecin], for which the IC50 in data set [4] (setting [12]) was found to be 0.36 ± 0.06 nM; in data set [5] (setting [13]) it was 0.56 ± 0.03 nM; in data set [6] (setting [14]) it was 102 ± 6.18 nM. Further, the “ranking of activity in NCI-H1975” value in data set [4] (among Table 2 compounds) is given as “best activities”. For the same molecule, the “ranking of activity in MDA-MB-231” value in data set [5] (among Table 2 compounds) was “best activities”.
Turning to `CC[C@@]1(O)C(=O)OCc2c1cc1n(c2=O)Cc2c-1nc1cc3c(cc1c2-c1ccco1)OCO3` [Compound 27, 20(S)-7-(furan-2-yl)-10,11-methylenedioxy-camptothecin], the results for the IC50 in data set [4] (setting [12]), in [5] (setting [13]) and in data set [6] (setting [14]) were 4.53 ± 0.16 nM, 1.79 ± 0.14 nM and 0.25 ± 0.01 nM, respectively.
Taken in the same sequence, the figures for `CC[C@@]1(O)C(=O)OCc2c1cc1n(c2=O)Cc2c-1nc1cc3c(cc1c2-c1cnn(C2CCCCO2)c1)OCO3` (stereo partly shown) [Compound 28] were 7.97 ± 0.52 nM, 1.56 ± 0.14 nM and 0.78 ± 0.06 nM.
For the molecule `CC[C@@]1(O)C(=O)OCc2c1cc1n(c2=O)Cc2c-1nc1cc3c(cc1c2-c1ccc2[nH]ccc2c1)OCO3` [Compound 29], the IC50 was determined as 79.7 ± 3.52 nM in data set [4] (setting [12]), 7.98 ± 0.72 nM in data set [5] (setting [13]) and 1.84 ± 0.11 nM in [6] (setting [14]).
Taken in the same sequence, the figures for `CC[C@@]1(O)C(=O)OCc2c1cc1n(c2=O)Cc2c-1nc1cc3c(cc1c2-c1ccnn1C)OCO3` [Compound 30] were 37.3 ± 2.82 nM, 43.4 ± 2.18 nM and 0.93 ± 0.08 nM.
Consider `CC[C@@]1(O)C(=O)OCc2c1cc1n(c2=O)Cc2c-1nc1cc3c(cc1c2CCN1CCOCC1)OCO3` [Compound 51, 20(S)-7-(2-morpholinoethyl)-10,11-methylenedioxy-camptothecin], for which the IC50 in data set [2] came to 13 ± 3.25 nM. Moreover, the “KD HSP90” value in data set [7] is “No combination”. Also, in [8], the Kd worked out at 4.15 nM and the “KD EGF” value is “can combine”. In data set [9], the “KD FGF” value is reported as “can combine” and binding was characterised by a dissociation constant (Kd) of 46 nM. Besides, in data set [3], the “antitumor activity in vivo compared with topotecan” value is reported as “better than that of topotecan”.
For `CCc1c2c(nc3ccc(OC(=O)N4CCC(N5CCCCC5)CC4)cc13)-c1cc3c(c(=O)n1C2)COC(=O)[C@]3(O)CC` [Irinotecan, reference compound], the Inhibitory rate in data set [1] (6 mg/kg intravenous every three days) is on record as 78.12^a %.
For the molecule `CC[C@@]1(O)C(=O)OCc2c1cc1n(c2=O)Cc2cc3c(CN(C)C)c(O)ccc3nc2-1` [Topotecan, reference compound], the IC50 was 559 ± 8.6 nM in data set [10]; 636 ± 8.95 nM in data set [2]; more than 500 nM in [4] (setting [15]); 123 ± 18.2 nM in [5] (setting [16]); more than 500 nM in data set [6] (setting [17]). Besides, in data set [7], the “KD HSP90” value was “No combination”. Besides, the “KD EGF” value in data set [8] is on record as “No combination”. The “KD FGF” value in data set [9] is listed as “No combination”.
